This is an account of results in patent US12371436B2, “Substituted benzodiazoliums as ENaC inhibitors” (ENTERPRISE THERAPEUTICS LIMITED, priority 2016, dated 2025).

In the test the target is T1, ENaC (Homo sapiens, UniProt P37088+P51168+P51170).
T1 construct: host or cells: primary human bronchial epithelial cells (HBECs) differentiated at air-liquid interface
T1 sequence (P37088 1-669): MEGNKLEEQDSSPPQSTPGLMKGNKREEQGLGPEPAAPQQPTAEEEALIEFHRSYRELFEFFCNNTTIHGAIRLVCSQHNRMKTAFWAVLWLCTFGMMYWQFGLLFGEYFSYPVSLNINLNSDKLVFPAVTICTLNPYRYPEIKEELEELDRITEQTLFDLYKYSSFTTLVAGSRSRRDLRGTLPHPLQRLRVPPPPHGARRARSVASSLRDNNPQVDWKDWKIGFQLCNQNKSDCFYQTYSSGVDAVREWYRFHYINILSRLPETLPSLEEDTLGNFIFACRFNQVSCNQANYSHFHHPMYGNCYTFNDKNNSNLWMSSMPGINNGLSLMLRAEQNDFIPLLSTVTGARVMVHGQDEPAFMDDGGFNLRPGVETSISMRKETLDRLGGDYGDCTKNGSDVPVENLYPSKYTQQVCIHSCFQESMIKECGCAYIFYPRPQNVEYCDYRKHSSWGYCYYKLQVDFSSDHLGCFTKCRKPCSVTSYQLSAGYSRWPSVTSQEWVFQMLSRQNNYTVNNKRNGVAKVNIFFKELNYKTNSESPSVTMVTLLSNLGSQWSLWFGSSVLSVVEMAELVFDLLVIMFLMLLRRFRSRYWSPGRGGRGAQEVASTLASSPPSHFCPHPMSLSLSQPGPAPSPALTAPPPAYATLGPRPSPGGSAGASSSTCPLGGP
T1 sequence (P51168 1-640): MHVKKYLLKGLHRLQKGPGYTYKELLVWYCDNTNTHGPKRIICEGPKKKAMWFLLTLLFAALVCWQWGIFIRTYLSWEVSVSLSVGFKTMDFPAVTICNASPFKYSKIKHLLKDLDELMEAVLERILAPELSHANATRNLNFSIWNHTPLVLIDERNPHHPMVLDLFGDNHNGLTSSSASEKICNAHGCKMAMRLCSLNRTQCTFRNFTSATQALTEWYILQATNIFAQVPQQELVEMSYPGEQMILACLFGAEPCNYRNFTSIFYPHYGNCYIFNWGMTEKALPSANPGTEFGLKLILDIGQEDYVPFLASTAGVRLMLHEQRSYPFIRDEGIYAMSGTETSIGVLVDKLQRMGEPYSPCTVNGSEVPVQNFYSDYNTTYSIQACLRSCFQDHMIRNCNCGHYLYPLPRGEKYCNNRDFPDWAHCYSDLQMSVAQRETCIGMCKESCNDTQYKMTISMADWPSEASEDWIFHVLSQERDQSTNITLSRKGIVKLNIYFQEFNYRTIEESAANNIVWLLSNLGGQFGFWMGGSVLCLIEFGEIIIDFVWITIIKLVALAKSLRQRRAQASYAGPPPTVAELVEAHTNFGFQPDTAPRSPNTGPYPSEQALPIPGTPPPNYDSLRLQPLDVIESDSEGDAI
T1 sequence (P51170 1-649): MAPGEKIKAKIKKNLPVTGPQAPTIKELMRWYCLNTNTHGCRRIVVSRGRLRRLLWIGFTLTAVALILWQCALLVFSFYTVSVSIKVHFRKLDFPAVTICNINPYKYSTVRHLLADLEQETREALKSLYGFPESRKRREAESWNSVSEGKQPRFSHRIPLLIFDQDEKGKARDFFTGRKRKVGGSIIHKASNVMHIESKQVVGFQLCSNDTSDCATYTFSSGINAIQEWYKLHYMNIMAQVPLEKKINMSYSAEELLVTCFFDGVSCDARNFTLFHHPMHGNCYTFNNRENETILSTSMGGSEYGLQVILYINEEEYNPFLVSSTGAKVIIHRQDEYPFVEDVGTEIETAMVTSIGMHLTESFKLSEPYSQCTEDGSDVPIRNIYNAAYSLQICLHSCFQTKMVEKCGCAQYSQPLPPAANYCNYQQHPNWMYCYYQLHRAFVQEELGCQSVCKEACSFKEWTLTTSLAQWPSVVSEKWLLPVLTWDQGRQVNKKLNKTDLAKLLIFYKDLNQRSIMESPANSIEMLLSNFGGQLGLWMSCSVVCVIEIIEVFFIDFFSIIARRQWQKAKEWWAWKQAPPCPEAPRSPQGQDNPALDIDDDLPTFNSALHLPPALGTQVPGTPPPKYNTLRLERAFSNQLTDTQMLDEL
The test is described as follows: Short circuit current assay to determine ENaC blocker potency in human bronchial epithelial cells. It counts as cell-based. The conditions noted are these: 50% inhibition of total amiloride-sensitive ISC, apical addition, read-out: Averages.ENaC IC50 (nM) Avg. The method, then: Example 68—Short circuit current assay to determine ENaC blocker potency in human bronchial epithelial cells
Human bronchial epithelial cells (HBECs) (Lonza, UK) were cultured using a modification of the method described by Coote et al, (2008). Cells were seeded into plastic T-75 flasks and grown in Bronchial Epithelial Cell Growth Medium (BEGM) (Lonza, UK) supplemented with bovine pituitary extract (52 ng/mL), hydrocortisone (0.5 μg/mL), human recombinant Epidermal Growth Factor (0.5 ng/mL), epinephrine (0.5 ng/mL), transferrin (10 ng/mL), insulin (5 ng/mL), retinoic acid (0.1 ng/mL), triiodothyronine (6.5 ng/mL), gentamycin (50 μg/mL) and amphotericin-B (50 ng/mL). Medium was changed every 48 hours until cells were 90% confluent. Cells were then passaged and seeded (8.25×10^5 cells/insert) onto polycarbonate Snapwell™ inserts (Costar, UK) in differentiation media containing 50% DMEM in BGEM with the same supplements as above but without triiodothyronine and a final retinoic acid concentration of 50 nM (all-trans retinoic acid; Sigma-Aldrich, UK). Cells were maintained submerged for the first 7 days in culture after which time they were exposed to an apical air interface for the remainder of the culture period. From the first day of establishment of an ALI, HBEC were fed with a DMEM:HAMS F-12 (1:1) media containing 2% Ultroser G (Pall BioSepra, France) with gentamycin (50 μg/mL) and amphotericin B (50 ng/mL). Cells were used for short-circuit current assay between days 14-21 after the establishment of the ALI. At all stages of culture, cells were maintained at 37° C. in 5% CO2 in an air incubator.
Short-Circuit Current (ISC) Measurements
Snapwell inserts were mounted in Costar Vertical Diffusion Chambers (Costar, UK) and were bathed with continuously gassed Ringer solution (5% CO2 in O2; pH 7.4) maintained at 37° C. containing (in mM): 120 NaCl, 25 NaHCO3, 3.3 KH2PO4, 0.8 K2HPO4, 1.2 CaCl2, 1.2 MgCl2 and 10 glucose. The solution osmolarity was always between 280-300 mOsm/kg H2O for all physiological salt solutions used. Cells were voltage clamped to 0 mV (model EVC4000, WPI). Transepithelial resistance (RT) was measured by applying a 2 mV pulse at 30 s intervals and calculating RT by Ohm's law. Data were recorded using a PowerLab workstation (ADlnstruments, UK).
ENaC blocker compounds were added to the apical chamber from a 1000-fold stock solution (prepared in DMSO) to achieve a cumulative concentration response in terms of the inhibition of the basal ISC. At the completion of the concentration response, a supra-maximal concentration of amiloride (10 μM) was added. The concentration of test compound that induced a 50% inhibition of the total amiloride-sensitive ISC (IC50) was calculated using GraphPad Prism v6.05. The results are presented in Table 2, from which it can be seen that the compounds of the present invention have ENaC inhibiting activity.
`CCn1c(CNC(=O)c2nc3cc[nH]c3nc2N)[n+](CC)c2ccc(-c3cnn(C4CCNCC4)c3)cc21` [Example 31, 2-[({3-amino-5H-pyrrolo[2,3-b]pyrazin-2-yl}formamido)methyl]-1,3-diethyl-6-[1-(piperidin-4-yl)-1H-pyrazol-4-yl]-1H-1,3-benzodiazol-3-ium]: the IC50 was 1 nM.

`CCn1c(CNC(=O)c2nc3cc[nH]c3nc2N)[n+](CC)c2ccc(OCCNC(=N)N)cc21` [Example 32, 2-[({3-amino-5H-pyrrolo[2,3-b]pyrazin-2-yl}formamido)methyl]-6-(2-carbamimidamidoethoxy)-1,3-diethyl-1H-1,3-benzodiazol-3-ium]: the IC50 was found to be 3 nM. Consider `CCn1c(CNC(=O)c2nc3cc[nH]c3nc2N)[n+](CC)c2ccc(CCCNC(=N)N)cc21` [Example 33, 2-[({3-amino-5H-pyrrolo[2,3-b]pyrazin-2-yl}formamido)methyl]-6-(3-carbamimidamidopropyl)-1,3-diethyl-1H-1,3-benzodiazol-3-ium], for which the IC50 was 3 nM.

Take `CCn1c(CNC(=O)c2nc3cc[nH]c3nc2N)[n+](CC)c2ccc(C(=O)O)cc21` [Example 34, 2-[({3-amino-5H-pyrrolo[2,3-b]pyrazin-2-yl}formamido)methyl]-6-carboxy-1,3-diethyl-1H-1,3-benzodiazol-3-ium]: the IC50 was 160 nM. On to `CCn1c(CNC(=O)c2nc3cc[nH]c3nc2N)[n+](CC)c2ccc(C(=O)NCCCNC(=O)OC(C)(C)C)cc21` [Example 35, 2-[({3-amino-5H-pyrrolo[2,3-b]pyrazin-2-yl}formamido)methyl]-6-[(3-{[(tert-butoxy)carbonyl]amino}propyl)carbamoyl]-1,3-diethyl-1H-1,3-benzodiazol-3-ium formic acid], for which the IC50 was 5 nM. In the case of `CCn1c(CNC(=O)c2nc3cc[nH]c3nc2N)[n+](CC)c2ccc(C(=O)NC3CCN(C(=O)OC(C)(C)C)CC3)cc21` [Example 36, 2-[({3-amino-5H-pyrrolo[2,3-b]pyrazin-2-yl}formamido)methyl]-6-({1-[(tert-butoxy)carbonyl]piperidin-4-yl}carbamoyl)-1,3-diethyl-1H-1,3-benzodiazol-3-ium], the IC50 turned out to be 3 nM. The figure for `CCn1c(CNC(=O)c2nc3cc[nH]c3nc2N)[n+](CC)c2ccc(C(=O)NCCN3CCC(NC(=O)OC(C)(C)C)CC3)cc21` [Example 38, 2-[({3-amino-5H-pyrrolo[2,3-b]pyrazin-2-yl}formamido)methyl]-6-{[2-(4-{[(tert-butoxy)carbonyl]amino}piperidin-1-yl)ethyl]carbamoyl}-1,3-diethyl-1H-1,3-benzodiazol-3-ium] is 9 nM; for `CCn1c(CNC(=O)c2nc3cc[nH]c3nc2N)[n+](CC)c2ccc(C(=O)NCCCN)cc21` [Example 39, 2-[({3-amino-5H-pyrrolo[2,3-b]pyrazin-2-yl}formamido)methyl]-6-[(3-aminopropyl)carbamoyl]-1,3-diethyl-1H-1,3-benzodiazol-3-ium] it is 15 nM. Regarding `CCn1c(CNC(=O)c2nc3cc[nH]c3nc2N)[n+](CC)c2ccc(C(=O)NC3CCNCC3)cc21` [Example 40, 2-[({3-amino-5H-pyrrolo[2,3-b]pyrazin-2-yl}formamido)methyl]-1,3-diethyl-6-[(piperidin-4-yl)carbamoyl]-1H-1,3-benzodiazol-3-ium], the IC50 was 7 nM. The value for `CCn1c(CNC(=O)c2nc3cc[nH]c3nc2N)[n+](CC)c2ccc(C(=O)N3CCC(N)CC3)cc21` [Example 41, 2-[({3-amino-5H-pyrrolo[2,3-b]pyrazin-2-yl}formamido)methyl]-6-(4-aminopiperidine-1-carbonyl)-1,3-diethyl-1H-1,3-benzodiazol-3-ium] was 11 nM; that for `CCn1c(CNC(=O)c2nc3cc[nH]c3nc2N)[n+](CC)c2ccc(C(=O)NCCN3CCC(N)CC3)cc21` [Example 42, 2-[({3-amino-5H-pyrrolo[2,3-b]pyrazin-2-yl}formamido)methyl]-6-{[2-(4-aminopiperidin-1-yl)ethyl]carbamoyl}-1,3-diethyl-1H-1,3-benzodiazol-3-ium] was 10 nM. With `CCn1c(CNC(=O)c2nc3cc[nH]c3nc2N)[n+](CC)c2ccc(OCCN(C[C@H](O)[C@@H](O)[C@H](O)[C@H](O)CO)C[C@H](O)[C@@H](O)[C@H](O)[C@H](O)CO)cc21` [Example 43, 2-[({3-amino-5H-pyrrolo[2,3-b]pyrazin-2-yl}formamido)methyl]-5-(2-{bis[(2S,3R,4R,5R)-2,3,4,5,6-pentahydroxyhexyl]amino}ethoxy)-1,3-diethyl-1H-1,3-benzodiazol-3-ium], the IC50 amounted to 51 nM. For the molecule `CCn1c(CNC(=O)c2nc3cc[nH]c3nc2N)[n+](CC)c2ccc(OCCCN(C[C@H](O)[C@@H](O)[C@H](O)[C@H](O)CO)C[C@H](O)[C@@H](O)[C@H](O)[C@H](O)CO)cc21` [Example 44, 2-[({3-amino-5H-pyrrolo[2,3-b]pyrazin-2-yl}formamido)methyl]-5-(3-{bis[(2S,3R,4R,5R)-2,3,4,5,6-pentahydroxyhexyl]amino}propoxy)-1,3-diethyl-1H-1,3-benzodiazol-3-ium], the IC50 was found to be 21 nM.

By IC50 is commonly meant the concentration at which inhibition is half-maximal.
